Tests used:
HDAC5 = HDAC5 (Homo sapiens (Human), UniProt Q9UQL6); conditions: read-out: HDAC5 IC50
HDAC1 = HDAC1 (Homo sapiens (Human), UniProt Q13547); conditions: read-out: HDAC1 IC50
HDAC1, sequence (Q13547 whole entry): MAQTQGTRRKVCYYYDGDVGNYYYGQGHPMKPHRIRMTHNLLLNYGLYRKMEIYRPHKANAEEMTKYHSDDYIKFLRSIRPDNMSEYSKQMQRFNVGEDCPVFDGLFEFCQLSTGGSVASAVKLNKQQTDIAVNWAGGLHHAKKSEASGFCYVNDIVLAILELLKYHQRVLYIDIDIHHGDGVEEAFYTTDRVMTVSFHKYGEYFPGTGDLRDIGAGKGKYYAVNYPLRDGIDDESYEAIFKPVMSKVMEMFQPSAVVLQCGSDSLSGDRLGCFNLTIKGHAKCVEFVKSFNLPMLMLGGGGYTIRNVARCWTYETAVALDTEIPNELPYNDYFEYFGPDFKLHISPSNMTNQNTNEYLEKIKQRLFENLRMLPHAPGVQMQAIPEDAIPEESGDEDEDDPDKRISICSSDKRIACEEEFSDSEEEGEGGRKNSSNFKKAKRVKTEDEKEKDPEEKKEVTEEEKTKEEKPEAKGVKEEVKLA

HDAC5, sequence (Q9UQL6 656-1122): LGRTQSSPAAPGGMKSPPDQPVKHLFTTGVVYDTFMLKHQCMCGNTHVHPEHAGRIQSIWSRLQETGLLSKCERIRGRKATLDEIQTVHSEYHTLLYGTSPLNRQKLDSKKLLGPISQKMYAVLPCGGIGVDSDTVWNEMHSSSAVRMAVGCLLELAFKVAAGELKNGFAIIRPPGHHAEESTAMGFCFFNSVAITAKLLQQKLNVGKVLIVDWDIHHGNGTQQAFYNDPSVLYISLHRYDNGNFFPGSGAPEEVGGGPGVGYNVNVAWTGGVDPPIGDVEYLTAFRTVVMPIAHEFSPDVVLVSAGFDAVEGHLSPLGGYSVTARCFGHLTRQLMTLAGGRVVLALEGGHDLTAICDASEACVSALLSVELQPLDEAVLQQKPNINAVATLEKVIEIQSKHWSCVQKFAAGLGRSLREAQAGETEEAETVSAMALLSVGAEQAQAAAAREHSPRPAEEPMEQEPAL

SMILES | IC50 (HDAC5) | IC50 (HDAC1)
Cn1c(OCc2ccc(-c3noc(C(F)(F)F)n3)cn2)nc2cccnc21 [Example 304, 3-methyl-2-({5-[5-(trifluoromethyl)-1,2,4-oxadiazol-3-yl]pyridin-2-yl}methoxy)-3H-imidazo[4,5-b]pyridine] | 0.079 µM | 0.25 µM
FC(F)(F)c1nc(-c2ccc(COc3nccc4nccn34)nc2)no1 [Example 303, 5-({5-[5-(trifluoromethyl)-1,2,4-oxadiazol-3-yl]pyridin-2-yl}methoxy)imidazo[1,2-c]pyrimidine] | 0.17 µM | 0.99 µM
Fc1cc(COc2ccc3cncnc3c2)ccc1-c1noc(C(F)(F)F)n1 [Example 285, 7-({3-fluoro-4-[5-(trifluoromethyl)-1,2,4-oxadiazol-3-yl]phenyl}methoxy)quinazoline] | 0.28 µM | 3.4 µM
Fc1cc(COc2nc3cccnc3n2C2CC2)ccc1-c1noc(C(F)(F)F)n1 [Example 272, 3-cyclopropyl-2-({3-fluoro-4-[5-(trifluoromethyl)-1,2,4-oxadiazol-3-yl]phenyl}methoxy)-3H-imidazo[4,5-b]pyridine] | 0.031 µM | 0.63 µM
Fc1ccc2ccc(OCc3ccc(-c4noc(C(F)(F)F)n4)c(F)c3)nc2n1 [Example 261, 2-fluoro-7-({3-fluoro-4-[5-(trifluoromethyl)-1,2,4-oxadiazol-3-yl]phenyl}methoxy)-1,8-naphthyridine] | 0.024 µM | 0.85 µM
Cc1csc(OCc2ccc(-c3noc(C(F)(F)F)n3)c(F)c2)n1 [Example 281, 3-(2-fluoro-4-{[(4-methyl-1,3-thiazol-2-yl)oxy]methyl}phenyl)-5-(trifluoromethyl)-1,2,4-oxadiazole] | 0.03 µM | 2.7 µM
Fc1cc(COc2cnc3[nH]ccc3c2)ccc1-c1noc(C(F)(F)F)n1 [Example 259, 5-({3-fluoro-4-[5-(trifluoromethyl)-1,2,4-oxadiazol-3-yl]phenyl}methoxy)-1H-pyrrolo[2,3-b]pyridine] | 0.084 µM | 4.2 µM
FC(F)(F)c1nc(-c2ccc(COc3ccc4cnccc4n3)nc2)no1 [Example 311, 2-({5-[5-(trifluoromethyl)-1,2,4-oxadiazol-3-yl]pyridin-2-yl}methoxy)-1,6-naphthyridine] | 0.54 µM | 0.88 µM
CC(C)(C)CC(=O)NC(Cc1ccc(-c2noc(C(F)(F)F)n2)cn1)c1cccc(C(F)(F)F)c1 (racemic) [Example 481, 3,3-dimethyl-N-(2-{5-[5-(trifluoromethyl)-1,2,4-oxadiazol-3-yl]pyridin-2-yl}-1-[3-(trifluoromethyl)phenyl]ethyl)butanamide] | 0.71 µM | 1.1 µM
Fc1cc(COc2ccc3cccc(F)c3n2)ccc1-c1noc(C(F)(F)F)n1 [Example 282, 8-fluoro-2-({3-fluoro-4-[5-(trifluoromethyl)-1,2,4-oxadiazol-3-yl]phenyl}methoxy)quinoline] | 0.007 µM | 0.72 µM
COc1ncc(OCc2ccc(-c3noc(C(F)(F)F)n3)c(F)c2)cn1 [Example 279, 5-({3-fluoro-4-[5-(trifluoromethyl)-1,2,4-oxadiazol-3-yl]phenyl}methoxy)-2-methoxypyrimidine] | 0.069 µM | 0.75 µM
Fc1cc(COc2ccc(Cl)nc2)ccc1-c1noc(C(F)(F)F)n1 [Example 288, 2-chloro-5-({3-fluoro-4-[5-(trifluoromethyl)-1,2,4-oxadiazol-3-yl]phenyl}methoxy)pyridine] | 0.28 µM | 45 µM
NC(=O)c1cccc(OCc2ccc(-c3noc(C(F)(F)F)n3)c(F)c2)c1 [Example 264, 3-({3-fluoro-4-[5-(trifluoromethyl)-1,2,4-oxadiazol-3-yl]phenyl}methoxy)benzamide] | 0.09 µM | 2.2 µM
O=S1(=O)CCC(S(=O)(=O)N(Cc2ccc(-c3noc(C(F)(F)F)n3)cc2)c2cccc(C(F)(F)F)c2)C1 (racemic) [Example 492, 1,1-dioxo-N-({4-[5-(trifluoromethyl)-1,2,4-oxadiazol-3-yl]phenyl}methyl)-N-[3-(trifluoromethyl)phenyl]-llambda~6~-thiolane-3-sulfonamide] | 0.39 µM | 1.2 µM
Cn1c(OCc2ccc(-c3noc(C(F)(F)F)n3)c(F)c2)nc2ncccc21 [Example 273, 2-({3-fluoro-4-[5-(trifluoromethyl)-1,2,4-oxadiazol-3-yl]phenyl}methoxy)-1-methyl-1H-imidazo[4,5-b]pyridine] | 0.028 µM | 0.72 µM
Fc1cccnc1COc1nccc(-c2noc(C(F)(F)F)n2)c1Cl [Example 291, 3-chloro-2-[(3-fluoropyridin-2-yl)methoxy]-4-[5-(trifluoromethyl)-1,2,4-oxadiazol-3-yl]pyridine] | 0.19 µM | 9.3 µM
Fc1cc(COc2nnnc3ccccc23)ccc1-c1noc(C(F)(F)F)n1 [Example 262, 4-({3-fluoro-4-[5-(trifluoromethyl)-1,2,4-oxadiazol-3-yl]phenyl}methoxy)-1,2,3-benzotriazine] | 0.12 µM | 2.9 µM
Cc1ncc(COc2nccc(-c3noc(C(F)(F)F)n3)c2Cl)c(C)n1 [Example 292, 5-[({3-chloro-4-[5-(trifluoromethyl)-1,2,4-oxadiazol-3-yl]pyridin-2-yl}oxy)methyl]-2,4-dimethylpyrimidine] | 0.54 µM | 6.5 µM

SMILES | IC50 (HDAC5) | IC50 (HDAC1)
COc1ccc2cc(OCc3ccc(-c4noc(C(F)(F)F)n4)c(F)c3)nnc2c1 [Example 275, 3-({3-fluoro-4-[5-(trifluoromethyl)-1,2,4-oxadiazol-3-yl]phenyl}methoxy)-7-methoxycinnoline] | 0.087 µM | 0.86 µM
FC(F)(F)c1nc(-c2ccc(COc3nncc4ccccc34)nc2)no1 [Example 298, 1-({5-[5-(trifluoromethyl)-1,2,4-oxadiazol-3-yl]pyridin-2-yl}methoxy)phthalazine] | 0.29 µM | 1 µM
Fc1cc(COc2nc3ncccc3n2CC(F)(F)F)ccc1-c1noc(C(F)(F)F)n1 [Example 277, 2-({3-fluoro-4-[5-(trifluoromethyl)-1,2,4-oxadiazol-3-yl]phenyl}methoxy)-1-(2,2,2-trifluoroethyl)-1H-imidazo[4,5-b]pyridine] | 0.13 µM | 2 µM
FC(F)(F)c1nc(-c2ccc(COc3ccc4ncnn4c3)nc2)no1 [Example 305, 6-({5-[5-(trifluoromethyl)-1,2,4-oxadiazol-3-yl]pyridin-2-yl}methoxy)[1,2,4]triazolo[1,5-a]pyridine] | 1.7 µM | 2.4 µM
Cn1ccc(COc2nccc(-c3noc(C(F)(F)F)n3)c2Cl)n1 [Example 289, 3-chloro-2-[(1-methyl-1H-pyrazol-3-yl)methoxy]-4-[5-(trifluoromethyl)-1,2,4-oxadiazol-3-yl]pyridine] | 0.68 µM | 8.4 µM
Cc1ccc(OCc2ccc(-c3noc(C(F)(F)F)n3)c(F)c2)nn1 [Example 263, 3-({3-fluoro-4-[5-(trifluoromethyl)-1,2,4-oxadiazol-3-yl]phenyl}methoxy)-6-methylpyridazine] | 0.24 µM | 5.3 µM
CC1(C)COCCN1C(=O)[C@@H]1CCC(=O)N1c1ccc(-c2noc(C(F)(F)F)n2)c(F)c1 [Example 344, (5S)-5-[(3,3-dimethylmorpholin-4-yl)carbonyl]-1-{3-fluoro-4-[5-(trifluoromethyl)-1,2,4-oxadiazol-3-yl]phenyl}pyrrolidin-2-one] | 1.9 µM | 45 µM
CNC(=O)c1ccccc1OCc1ccc(-c2noc(C(F)(F)F)n2)c(F)c1 [Example 284, 2-({3-fluoro-4-[5-(trifluoromethyl)-1,2,4-oxadiazol-3-yl]phenyl}methoxy)-N-methylbenzamide] | 0.26 µM | 2.2 µM
COC(=O)NC(Cc1ccc(-c2noc(C(F)(F)F)n2)cn1)c1cccc(C(F)(F)F)c1 (stereo not shown) [Example 180] | 0.65 µM | 0.65 µM
FC(F)(F)c1nc(-c2ccc(COc3ccc(Cl)nc3)nc2)no1 [Example 310, 2-chloro-5-({5-[5-(trifluoromethyl)-1,2,4-oxadiazol-3-yl]pyridin-2-yl}methoxy)pyridine] | 0.77 µM | 2.4 µM
Fc1cc(COc2nnc(C3CC3)o2)ccc1-c1noc(C(F)(F)F)n1 [Example 280, 3-(4-{[(5-cyclopropyl-1,3,4-oxadiazol-2-yl)oxy]methyl}-2-fluorophenyl)-5-(trifluoromethyl)-1,2,4-oxadiazole] | 0.19 µM | 2.2 µM
Cc1cncnc1OCc1ccc(-c2noc(C(F)(F)F)n2)cn1 [Example 307, 5-methyl-4-({5-[5-(trifluoromethyl)-1,2,4-oxadiazol-3-yl]pyridin-2-yl}methoxy)pyrimidine] | 0.62 µM | 2.2 µM
FC(F)(F)c1nc(-c2ccc(COc3cccc4[nH]nnc34)nc2)no1 [Example 297, 4-({5-[5-(trifluoromethyl)-1,2,4-oxadiazol-3-yl]pyridin-2-yl}methoxy)-1H-benzotriazole] | 0.051 µM | 0.31 µM
Fc1cc(F)c(OCc2ccc(-c3noc(C(F)(F)F)n3)c(F)c2)cn1 [Example 283, 2,4-difluoro-5-({3-fluoro-4-[5-(trifluoromethyl)-1,2,4-oxadiazol-3-yl]phenyl}methoxy)pyridine] | 0.075 µM | 45 µM
Cc1cnc(COc2nccc(-c3noc(C(F)(F)F)n3)c2Cl)cn1 [Example 290, 2-[({3-chloro-4-[5-(trifluoromethyl)-1,2,4-oxadiazol-3-yl]pyridin-2-yl}oxy)methyl]-5-methylpyrazine] | 0.66 µM | 8.1 µM
Fc1cc(COc2nc3cccnc3n2CC(F)(F)F)ccc1-c1noc(C(F)(F)F)n1 [Example 278, 2-({3-fluoro-4-[5-(trifluoromethyl)-1,2,4-oxadiazol-3-yl]phenyl}methoxy)-3-(2,2,2-trifluoroethyl)-3H-imidazo[4,5-b]pyridine] | 0.086 µM | 0.78 µM
Fc1cc(COc2cnc(C3CC3)nc2)ccc1-c1noc(C(F)(F)F)n1 [Example 276, 2-cyclopropyl-5-({3-fluoro-4-[5-(trifluoromethyl)-1,2,4-oxadiazol-3-yl]phenyl}methoxy)pyrimidine] | 0.12 µM | 1.5 µM

Source: patent publication US11066396B2 (priority 2016, dated 2021)
